One may read the EC50 as the concentration needed to bring the measured effect to its halfway point. A higher EC50 goes with lower potency in that assay. For orientation: inhibition means the share of the control response that was lost under treatment. A low value points to little suppression.

Experimental findings from ChEMBL document CHEMBL1144369, “2-Ethoxybenzoxazole as a bioisosteric replacement of an ethyl benzoate group in a human rhinovirus (HRV) capsid binder” (Bioorg Med Chem Lett, 2005) are described below.

Molecules are shown by their SMILES. Values after ≈ are worked out from the molar mass of the structure shown.

For test [1], the system named is Human rhinovirus sp. The test is described as follows: Effective concentration against HRV serotype 51 (assay was run at least six times). The format is functional, organism-based.
Test [2] concerns Human rhinovirus sp. As to the kind of experiment: Effective concentration against HRV serotype 63 (assay was run at least six times). Format: functional, organism-based.
For test [3], the system named is Human rhinovirus sp. The test is described as follows: Effective concentration against HRV serotype 70 (assay was run at least six times). Format: functional, organism-based.
For test [4], the system named is Human rhinovirus sp. The test is described as follows: Effective concentration against HRV serotype 72 (assay was run at least six times). The format is functional, organism-based.
In test [5] the test system is Human rhinovirus sp. The test is described as follows: Effective concentration against HRV serotype 85 (assay was run at least six times). Format: functional, organism-based.
The test system of test [6] is Human rhinovirus sp. As to the kind of experiment: Effective concentration against HRV serotype 86 (assay was run at least six times). Format: functional, organism-based.
The test system of test [7] is Human rhinovirus sp. As to the kind of experiment: Effective concentration against HRV serotype 89 (assay was run at least six times). The format is functional, organism-based.
Test [8] relates to Human rhinovirus sp. The test is described as follows: Effective concentration against HRV-14. Format: functional, organism-based.
Test [9] relates to Human rhinovirus sp. The test is described as follows: Effective concentration against HRV serotype 45 (assay was run for 3 times). Format: functional, organism-based.
The subject of test [10] is Human rhinovirus sp. As to the kind of experiment: Median effective concentration against HRV serotypes; Number of serotypes 16. Format: functional, organism-based.
Test [11] has as its system Human rhinovirus sp. As to the kind of experiment: Effective concentration against HRV serotype 9 (assay was run at least six times). Format: functional, organism-based.
In test [12] the test system is Human rhinovirus sp. The test is described as follows: Effective concentration against HRV serotype 14 (assay was run at least six times). The format is functional, organism-based.
Test [13] deals with Human rhinovirus sp. As to the kind of experiment: Effective concentration against HRV serotype 15 (assay was run at least six times). The format is functional, organism-based.
Test [14] relates to Human rhinovirus sp. As to the kind of experiment: Effective concentration against HRV serotype 16 (assay was run at least six times). Format: functional, organism-based.
The subject of test [15] is Human rhinovirus sp. The test is described as follows: Effective concentration against HRV serotype 29 (assay was run at least six times). Format: functional, organism-based.
For test [16], the system named is Human rhinovirus sp. The test is described as follows: Effective concentration against HRV serotype 39 (assay was run at least six times). The format is functional, organism-based.
Test [17] relates to Human rhinovirus sp. As to the kind of experiment: Effective concentration against HRV-2. The format is functional, organism-based.
Test [18] deals with Human rhinovirus sp. The test is described as follows: Effective concentration against HRV serotype 2 (assay was run at least six times). The format is functional, organism-based.
The test system of test [19] is Human rhinovirus sp. As to the kind of experiment: Effective concentration against HRV serotype 59 (assay was run at least six times). Format: functional, organism-based.
Test [20] concerns Human rhinovirus sp. As to the kind of experiment: Percent inhibition of HRV strains at a concentration of 0.064 ug/mL; no. of strains=100. The format is functional.
Test [21] deals with Human rhinovirus sp. The test is described as follows: Effective concentration against HRV serotype 45 (assay was run at least six times). The format is functional, organism-based.
For test [22], the system named is Human rhinovirus sp. As to the kind of experiment: Effective concentration against HRV-16. Format: functional, organism-based.

As for `CCOc1nc2cc(OCCC3CCN(c4ccc(C)nn4)CC3)ccc2o1`, the EC50 in the test on Human rhinovirus sp. [1] stood at 0.00345 µg/mL (≈ 0.00902 µM); with Human rhinovirus sp. [2], 0.0003 µg/mL (≈ 0.000784 µM); with Human rhinovirus sp. [3], 0.0152 µg/mL (≈ 0.0398 µM); with Human rhinovirus sp. [4], 0.142 µg/mL (≈ 0.372 µM); with Human rhinovirus sp. [5] it was 0.00078 µg/mL (≈ 0.00204 µM); in the test with Human rhinovirus sp. [6], 0.00874 µg/mL (≈ 0.0229 µM). Besides, the EC50 in the test with Human rhinovirus sp. [7] is 0.00151 µg/mL (≈ 0.00395 µM); in the test on Human rhinovirus sp. [8], 0.007 µg/mL (≈ 0.0183 µM); in the test with Human rhinovirus sp. [9], more than 0.25 µg/mL; with Human rhinovirus sp. [10], 0.00388 µg/mL (≈ 0.0101 µM); in the test on Human rhinovirus sp. [11], 0.0012 µg/mL (≈ 0.00314 µM); in the test on Human rhinovirus sp. [12], 0.00432 µg/mL (≈ 0.0113 µM). Moreover, the EC50 with Human rhinovirus sp. [13] was found to be 0.00433 µg/mL (≈ 0.0113 µM); with Human rhinovirus sp. [14], 0.00772 µg/mL (≈ 0.0202 µM); in the test with Human rhinovirus sp. [15], 0.00728 µg/mL (≈ 0.019 µM); in the test with Human rhinovirus sp. [16], 0.00053 µg/mL (≈ 0.00139 µM); in the test with Human rhinovirus sp. [17], 0.003 µg/mL (≈ 0.00784 µM); with Human rhinovirus sp. [18] it was 0.00116 µg/mL (≈ 0.00303 µM). The EC50 with Human rhinovirus sp. [19] was 0.00226 µg/mL (≈ 0.00591 µM).
Turning to `CSc1nc2cc(OCCC3CCN(c4ccc(C)nn4)CC3)ccc2o1`, the EC50 in the test with Human rhinovirus sp. [8] was 0.047 µg/mL (≈ 0.122 µM); in the test with Human rhinovirus sp. [17], 0.099 µg/mL (≈ 0.257 µM).
In the test on Human rhinovirus sp. [20], `CCOC(=O)c1ccc(OCCC2CCN(c3ccc(C)nn3)CC2)cc1` [PIRODAVIR] registered an inhibition at 0.064 µg/mL of 80%. Also, the EC50 with Human rhinovirus sp. [21] is more than 5 µg/mL; with Human rhinovirus sp. [1], 0.00521 µg/mL (≈ 0.0141 µM); with Human rhinovirus sp. [2], 0.00083 µg/mL (≈ 0.00225 µM); in the test on Human rhinovirus sp. [3], 0.00214 µg/mL (≈ 0.00579 µM); in the test with Human rhinovirus sp. [4], 0.0348 µg/mL (≈ 0.0941 µM); with Human rhinovirus sp. [5], 0.00472 µg/mL (≈ 0.0128 µM). The EC50 turned out to be 0.00956 µg/mL (≈ 0.0259 µM) with Human rhinovirus sp. [6]; 0.0057 µg/mL (≈ 0.0154 µM) in the test on Human rhinovirus sp. [7]; 0.00454 µg/mL (≈ 0.0123 µM) in the test on Human rhinovirus sp. [10]; 0.00205 µg/mL (≈ 0.00555 µM) in the test with Human rhinovirus sp. [11]; 0.00365 µg/mL (≈ 0.00988 µM) with Human rhinovirus sp. [12]; 0.00792 µg/mL (≈ 0.0214 µM) in the test with Human rhinovirus sp. [13]. The EC50 turned out to be 0.0152 µg/mL (≈ 0.0412 µM) with Human rhinovirus sp. [14]; 0.00374 µg/mL (≈ 0.0101 µM) in the test with Human rhinovirus sp. [15]; 0.0018 µg/mL (≈ 0.00487 µM) with Human rhinovirus sp. [16]; 0.00277 µg/mL (≈ 0.0075 µM) in the test with Human rhinovirus sp. [18]; 0.00437 µg/mL (≈ 0.0118 µM) in the test with Human rhinovirus sp. [19].
As to `CCSc1nc2ccc(OCCC3CCN(c4ccc(C)nn4)CC3)cc2s1`, the EC50 with Human rhinovirus sp. [8] amounted to 0.049 µg/mL (≈ 0.118 µM); in the test with Human rhinovirus sp. [17], 0.165 µg/mL (≈ 0.398 µM).
For `CCSc1nc2ccc(OCCC3CCN(c4ccc(C)nn4)CC3)cc2n1C`, the EC50 is more than 0.25 µg/mL in the test on Human rhinovirus sp. [8] and 0.086 µg/mL (≈ 0.209 µM) in the test with Human rhinovirus sp. [17].
Take `CCCOc1nc2ccc(OCCC3CCN(c4ccc(C)nn4)CC3)cc2s1`: the EC50 turned out to be 0.041 µg/mL (≈ 0.0994 µM) in the test on Human rhinovirus sp. [8] and 0.166 µg/mL (≈ 0.402 µM) with Human rhinovirus sp. [17].
Consider `CCOc1nc2cc(OCCC3CCN(c4ccc(C)nn4)CC3)ccc2s1`, for which the results for the EC50 with Human rhinovirus sp. [8] and with Human rhinovirus sp. [17] were 0.006 µg/mL (≈ 0.0151 µM) and 0.007 µg/mL (≈ 0.0176 µM), respectively.
Taken in the same sequence, the figures for `COc1nc2cc(OCCC3CCN(c4ccc(C)nn4)CC3)ccc2o1` were 0.099 µg/mL (≈ 0.269 µM) and 0.159 µg/mL (≈ 0.432 µM).
Taken in the same sequence, the figures for `CCSc1nc2cc(OCCC3CCN(c4ccc(C)nn4)CC3)ccc2o1` were 0.006 µg/mL (≈ 0.0151 µM) and 0.002 µg/mL (≈ 0.00502 µM).
Taken in the same sequence, the figures for `CCSc1nc2cc(OCCC3CCN(c4ccc(C)nn4)CC3)ccc2n1C` were 0.169 µg/mL (≈ 0.411 µM) and 0.102 µg/mL (≈ 0.248 µM).
For `Cc1ccc(N2CCC(CCOc3ccc4nc(C)oc4c3)CC2)nn1`, the EC50 in the test with Human rhinovirus sp. [8] and with Human rhinovirus sp. [17] was more than 0.5 µg/mL throughout.
As to `CCc1nc2cc(OCCC3CCN(c4ccc(C)nn4)CC3)ccc2o1`, the figures for the EC50 with Human rhinovirus sp. [8] and in the test on Human rhinovirus sp. [17] were 0.13 µg/mL (≈ 0.355 µM) and 0.144 µg/mL (≈ 0.393 µM), respectively.
Taken in the same sequence, the figures for `CCCc1nc2cc(OCCC3CCN(c4ccc(C)nn4)CC3)ccc2o1` were 0.028 µg/mL (≈ 0.0736 µM) and 0.075 µg/mL (≈ 0.197 µM).
In the same order, the values of `CCCOc1nc2cc(OCCC3CCN(c4ccc(C)nn4)CC3)ccc2o1` are 0.02 µg/mL (≈ 0.0504 µM) and 0.002 µg/mL (≈ 0.00504 µM).
With `CCOc1nc2ccc(OCCC3CCN(c4ccc(C)nn4)CC3)cc2o1`, the figures for the EC50 in the test on Human rhinovirus sp. [17] and in the test with Human rhinovirus sp. [22] were 0.045 µg/mL (≈ 0.118 µM) and 0.023 µg/mL (≈ 0.0601 µM), respectively.
Turning to `CCOc1nc2ccc(OCCC3CCN(c4ccc(C)nn4)CC3)cc2s1`, the EC50 in the test with Human rhinovirus sp. [8] is 0.014 µg/mL (≈ 0.0351 µM); in the test with Human rhinovirus sp. [17], 0.104 µg/mL (≈ 0.261 µM).
For `Cc1cc(CCCOc2c(C)cc(-c3noc(C(F)(F)F)n3)cc2C)on1` [PLECONARIL], the EC50 was determined as 1.91 µg/mL (≈ 5 µM) in the test on Human rhinovirus sp. [21]; 0.0304 µg/mL (≈ 0.0797 µM) in the test on Human rhinovirus sp. [1]; 0.0623 µg/mL (≈ 0.163 µM) in the test on Human rhinovirus sp. [2]; 0.0539 µg/mL (≈ 0.141 µM) in the test on Human rhinovirus sp. [3]; 0.469 µg/mL (≈ 1.23 µM) with Human rhinovirus sp. [4]; 0.034 µg/mL (≈ 0.0892 µM) in the test with Human rhinovirus sp. [5]. Moreover, the EC50 is 0.07 µg/mL (≈ 0.184 µM) in the test with Human rhinovirus sp. [6]; 0.0293 µg/mL (≈ 0.0769 µM) in the test on Human rhinovirus sp. [7]; 0.0496 µg/mL (≈ 0.13 µM) in the test on Human rhinovirus sp. [10]; 0.0372 µg/mL (≈ 0.0974 µM) in the test on Human rhinovirus sp. [11]; 0.0343 µg/mL (≈ 0.09 µM) in the test with Human rhinovirus sp. [12]; 0.0698 µg/mL (≈ 0.183 µM) in the test on Human rhinovirus sp. [13]. Moreover, the EC50 in the test on Human rhinovirus sp. [14] is 0.108 µg/mL (≈ 0.283 µM); in the test on Human rhinovirus sp. [15], 0.0454 µg/mL (≈ 0.119 µM); in the test with Human rhinovirus sp. [16], 0.0449 µg/mL (≈ 0.118 µM); in the test on Human rhinovirus sp. [18], 0.0265 µg/mL (≈ 0.0694 µM); with Human rhinovirus sp. [19], 0.387 µg/mL (≈ 1.02 µM).
`CCCCc1nc2cc(OCCC3CCN(c4ccc(C)nn4)CC3)ccc2o1`: the EC50 in the test with Human rhinovirus sp. [8] is 0.082 µg/mL (≈ 0.208 µM); with Human rhinovirus sp. [17] it was 0.013 µg/mL (≈ 0.033 µM).
Taken in the same sequence, the figures for `Cc1ccc(N2CCC(CCOc3ccc4oc(C)nc4c3)CC2)nn1` were more than 0.5 µg/mL and more than 0.5 µg/mL.
`CCSc1nc2ccc(OCCC3CCN(c4ccc(C)nn4)CC3)cc2o1`: the values for the EC50 in the test with Human rhinovirus sp. [8] and with Human rhinovirus sp. [17] were 0.05 µg/mL (≈ 0.125 µM) and 0.004 µg/mL (≈ 0.01 µM), respectively.
